Results as given in patent US9981975B2, “Pyrrolotriazine compounds as tam inhibitors” (Incyte Corporation, priority 2016, dated 2018).

Assays:
Format in all cases: biochemical
c-Mer = c-Mer (Homo sapiens (Human), UniProt Q12866); test: TAM Enzymatic Assay (HTRF), Mer; conditions: 60 min, room temperature
Procedure: (§1) The kinase assay buffer contained 50 mM HEPES, pH7.5, 10 mM MgCl2, 1 mM EGTA, 0.01% NP-40 and 2 mM DTT. 0.1 ul test compounds dissolved in DMSO were transferred from compound plates to white 384-well assay plates (Greiner […] plates). […] 4 ul enzyme solution (or assay buffer for the enzyme blank) was added to the appropriate wells in each plate, and then 4 ul/well substrate solution was added to initiate the reaction. The plate was protected from light and incubated at room temperature for 60 min. […] The plate was incubated for 1 h at room temperature, and HTRF (homogenous time resolved fluorescence) signal was measured on a PHERAstar FS plate reader (BMG labtech). Percentage of inhibition was calculated for each concentration and IC50 value was generated from curve fitting with GraphPad Prism software.

Tyro3 = Tyro3 (Homo sapiens (Human), UniProt Q06418); test: TAM Enzymatic Assay (HTRF), Tyro3; conditions: Tyro3, 60 min, room temperature
Procedure, shortened: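 Reactions ran 60 min at room temperature, protected from light, started by substrate addition to enzyme plus DMSO compound, in pH 7.5 HEPES buffer with 10 mM MgCl2, 1 mM EGTA, 0.01% NP-40, 2 mM DTT.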

phosphor-Axl = phosphor-Axl (Homo sapiens (Human), UniProt P30530); test: TAM Enzymatic Assay (HTRF), Axl; conditions: recombinant autophosphorylated Axl, 60 min, room temperature
Procedure: Autophosphorylation of Axl was carried out by incubating the recombinant Axl protein (Life Technologies, PV4275) in buffer containing 50 mM Tris, pH7.5, 0.2 mg/ml Axl, 5 mM ATP, 20 mM MgCl2 and 2 mM DTT at room temperature for 1 hour.
as §1

c-Mer, sequence (Q12866 21-999): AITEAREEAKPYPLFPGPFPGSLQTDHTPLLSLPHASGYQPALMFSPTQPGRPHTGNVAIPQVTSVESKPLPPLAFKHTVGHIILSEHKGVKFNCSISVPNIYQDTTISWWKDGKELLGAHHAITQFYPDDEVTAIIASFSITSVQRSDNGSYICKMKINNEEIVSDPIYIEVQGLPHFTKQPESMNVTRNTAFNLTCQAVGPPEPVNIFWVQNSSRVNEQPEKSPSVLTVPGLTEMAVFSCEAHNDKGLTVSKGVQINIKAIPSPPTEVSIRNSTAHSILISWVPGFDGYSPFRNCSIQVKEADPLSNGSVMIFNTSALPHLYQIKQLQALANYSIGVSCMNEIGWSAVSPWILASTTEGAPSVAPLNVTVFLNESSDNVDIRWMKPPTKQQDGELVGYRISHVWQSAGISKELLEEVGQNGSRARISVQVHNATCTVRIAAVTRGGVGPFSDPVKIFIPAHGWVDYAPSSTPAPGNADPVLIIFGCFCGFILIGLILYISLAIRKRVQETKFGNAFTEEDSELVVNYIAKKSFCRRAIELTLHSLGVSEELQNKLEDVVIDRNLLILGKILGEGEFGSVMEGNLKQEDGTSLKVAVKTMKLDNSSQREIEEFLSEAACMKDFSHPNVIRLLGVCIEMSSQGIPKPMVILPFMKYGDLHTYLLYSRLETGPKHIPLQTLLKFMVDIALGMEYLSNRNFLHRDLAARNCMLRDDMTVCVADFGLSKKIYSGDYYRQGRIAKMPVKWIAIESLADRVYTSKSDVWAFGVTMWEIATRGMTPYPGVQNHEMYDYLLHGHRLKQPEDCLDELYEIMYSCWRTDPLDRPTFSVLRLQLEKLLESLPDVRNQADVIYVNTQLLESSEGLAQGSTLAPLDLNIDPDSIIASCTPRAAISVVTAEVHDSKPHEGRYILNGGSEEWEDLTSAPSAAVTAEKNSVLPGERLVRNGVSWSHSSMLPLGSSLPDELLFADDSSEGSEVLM
Tyro3, sequence (Q06418 41-890): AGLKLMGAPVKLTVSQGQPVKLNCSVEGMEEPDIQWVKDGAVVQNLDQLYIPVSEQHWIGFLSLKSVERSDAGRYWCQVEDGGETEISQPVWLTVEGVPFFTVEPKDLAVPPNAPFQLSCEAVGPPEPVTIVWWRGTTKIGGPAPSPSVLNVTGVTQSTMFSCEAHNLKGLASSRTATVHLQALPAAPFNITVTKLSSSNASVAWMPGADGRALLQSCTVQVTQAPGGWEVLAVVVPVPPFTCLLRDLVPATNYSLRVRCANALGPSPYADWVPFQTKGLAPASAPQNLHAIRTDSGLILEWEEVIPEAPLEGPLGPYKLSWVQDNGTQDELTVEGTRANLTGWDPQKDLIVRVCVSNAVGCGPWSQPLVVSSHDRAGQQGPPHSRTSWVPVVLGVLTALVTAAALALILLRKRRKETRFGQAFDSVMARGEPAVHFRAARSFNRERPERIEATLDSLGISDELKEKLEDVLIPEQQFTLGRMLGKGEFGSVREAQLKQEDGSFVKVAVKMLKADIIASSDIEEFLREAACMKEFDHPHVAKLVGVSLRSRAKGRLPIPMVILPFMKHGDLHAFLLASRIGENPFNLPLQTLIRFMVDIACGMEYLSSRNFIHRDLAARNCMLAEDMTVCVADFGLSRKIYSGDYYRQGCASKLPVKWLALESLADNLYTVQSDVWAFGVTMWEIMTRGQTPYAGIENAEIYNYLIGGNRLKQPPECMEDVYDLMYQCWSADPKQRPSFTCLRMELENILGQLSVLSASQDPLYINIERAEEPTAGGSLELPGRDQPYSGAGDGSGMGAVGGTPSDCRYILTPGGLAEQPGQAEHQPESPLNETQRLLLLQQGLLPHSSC
phosphor-Axl, sequence (P30530 26-894): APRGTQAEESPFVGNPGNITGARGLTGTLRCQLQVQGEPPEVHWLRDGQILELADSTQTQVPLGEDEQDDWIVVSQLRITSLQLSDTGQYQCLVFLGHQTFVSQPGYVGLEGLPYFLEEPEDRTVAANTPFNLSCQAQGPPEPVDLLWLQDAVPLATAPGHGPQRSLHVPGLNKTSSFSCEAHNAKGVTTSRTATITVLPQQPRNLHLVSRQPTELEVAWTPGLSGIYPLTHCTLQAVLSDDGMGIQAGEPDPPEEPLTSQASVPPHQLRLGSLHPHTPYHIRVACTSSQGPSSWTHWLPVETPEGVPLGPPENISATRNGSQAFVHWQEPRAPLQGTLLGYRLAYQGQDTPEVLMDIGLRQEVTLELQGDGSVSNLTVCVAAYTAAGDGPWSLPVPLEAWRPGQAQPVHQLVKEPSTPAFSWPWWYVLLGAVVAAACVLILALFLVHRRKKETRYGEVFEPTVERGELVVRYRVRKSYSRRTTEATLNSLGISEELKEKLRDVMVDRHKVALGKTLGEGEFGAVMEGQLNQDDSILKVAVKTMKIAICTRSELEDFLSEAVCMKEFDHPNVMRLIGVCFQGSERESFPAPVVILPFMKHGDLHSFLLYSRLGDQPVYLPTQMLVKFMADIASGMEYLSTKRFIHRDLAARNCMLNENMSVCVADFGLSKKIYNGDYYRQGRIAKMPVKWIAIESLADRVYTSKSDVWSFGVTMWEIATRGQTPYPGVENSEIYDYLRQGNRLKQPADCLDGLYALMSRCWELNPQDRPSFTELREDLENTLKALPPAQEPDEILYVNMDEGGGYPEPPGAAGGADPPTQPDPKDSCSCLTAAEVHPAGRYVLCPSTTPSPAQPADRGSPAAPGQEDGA

Row | SMILES | IC50 (c-Mer) [nM] | IC50 (Tyro3) [nM] | IC50 (phosphor-Axl) [nM]
1 | COCCN1CCC(c2cc(-c3ccc(NC(=O)c4cccn(-c5ccc(F)cc5)c4=O)cc3)c3c(N)ncnn23)CC1 [Example 49, N-(4-{4-Amino-7-[1-(2-methoxyethyl)piperidin-4-yl]pyrrolo[2,1-f][1,2,4]triazin-5-yl}phenyl)-1-(4-fluorophenyl)-2-oxo-1,2-dihydropyridine-3-carboxamide] | ≤ 5 | 10 to 100 | ≤ 5
2 | Nc1ncnn2c(C3CCNCC3)cc(-c3ccc(NC(=O)c4cccn(-c5ccccc5)c4=O)cc3)c12 [Example 32, N-[4-(4-Amino-7-piperidin-4-ylpyrrolo[2,1-f][1,2,4]triazin-5-yl)phenyl]-2-oxo-1-phenyl-1,2-dihydropyridine-3-carboxamide] | ≤ 5 | 10 to 100 | ≤ 5
3 | CN(C)C(=O)N1CCC(c2cc(-c3ccc(NC(=O)c4cccn(-c5ccc(F)cc5)c4=O)cc3)c3c(N)ncnn23)CC1 [Example 45, N-[4-(4-Amino-7-{1-[(dimethylamino)carbonyl]piperidin-4-yl}pyrrolo[2,1-f][1,2,4]triazin-5-yl)phenyl]-1-(4-fluorophenyl)-2-oxo-1,2-dihydropyridine-3-carboxamide] | ≤ 5 | 10 to 100 | ≤ 5
4 | CN(C)C(=O)N1CCC(c2cc(-c3ccc(NC(=O)c4cccn(-c5ccccc5)c4=O)cc3F)c3c(N)ncnn23)CC1 [Example 46, N-[4-(4-Amino-7-{1-[(dimethylamino)carbonyl]piperidin-4-yl}pyrrolo[2,1-f][1,2,4]triazin-5-yl)-3-fluorophenyl]-2-oxo-1-phenyl-1,2-dihydropyridine-3-carboxamide] | ≤ 5 | 10 to 100 | ≤ 5
5 | Nc1ncnn2c(C3CCN(CCO)CC3)cc(-c3ccc(NC(=O)c4cccn(-c5ccccc5)c4=O)cc3F)c12 [Example 54] | ≤ 5 | 10 to 100 | ≤ 5
6 | CC(=O)N1CCC(c2cc(-c3ccc(NC(=O)c4cccn(-c5ccccc5)c4=O)cc3F)c3c(N)ncnn23)CC1 [Example 26, N-{4-[7-(1-Acetylpiperidin-4-yl)-4-aminopyrrolo[2,1-f][1,2,4]triazin-5-yl]-3-fluorophenyl}-2-oxo-1-phenyl-1,2-dihydropyridine-3-carboxamide] | ≤ 5 | 10 to 100 | ≤ 5
7 | CC(C)n1cc(C(=O)Nc2ccc(-c3cc(C4CCN(C(=O)N(C)C)CC4)n4ncnc(N)c34)cc2)c(=O)n(-c2ccccc2)c1=O [Example 61, N-(4-(4-Amino-7-(1-(dimethylcarbamoyl)piperidin-4-yl)pyrrolo[1,2-f][1,2,4]triazin-5-yl)phenyl)-1-isopropyl-2,4-dioxo-3-phenyl-1,2,3,4-tetrahydropyrimidine-5-carboxamide] | ≤ 5 | 10 to 100 | ≤ 5
8 | CC(=O)N1CCC(c2cc(-c3ccc(NC(=O)c4cccn(-c5ccc(F)cc5)c4=O)cc3F)c3c(N)ncnn23)CC1 [Example 27, N-{4-[7-(1-Acetylpiperidin-4-yl)-4-aminopyrrolo[2,1-f][1,2,4]triazin-5-yl]-3-fluorophenyl}-1-(4-fluorophenyl)-2-oxo-1,2-dihydropyridine-3-carboxamide] | ≤ 5 | 10 to 100 | ≤ 5
9 | CCc1cc(-c2ccc(NC(=O)c3cccn(-c4ccccc4)c3=O)cc2F)c2c(N)ncnn12 [Example 12, N-[4-(4-Amino-7-ethylpyrrolo[2,1-f][1,2,4]triazin-5-yl)-3-fluorophenyl]-2-oxo-1-phenyl-1,2-dihydropyridine-3-carboxamide] | ≤ 5 | > 100 | –
10 | Nc1ncnn2c1c(-c1ccc(NC(=O)c3cccn(-c4ccccc4)c3=O)cc1F)cc2[C@H]1CC[C@@H](O)CC1 [Example 18, N-{4-[4-Amino-7-(cis-4-hydroxycyclohexyl)pyrrolo[2,1-f][1,2,4]triazin-5-yl]-3-fluorophenyl}-2-oxo-1-phenyl-1,2-dihydropyridine-3-carboxamide] | ≤ 5 | – | ≤ 5
11 | Nc1ncnn2c1c(-c1ccc(NC(=O)c3cccn(-c4ccc(F)cc4)c3=O)cc1)cc2[C@H]1CC[C@@H](O)CC1 [Example 17, N-{4-[4-Amino-7-(cis-4-hydroxycyclohexyl)pyrrolo[2,1-f][1,2,4]triazin-5-yl]phenyl}-1-(4-fluorophenyl)-2-oxo-1,2-dihydropyridine-3-carboxamide] | ≤ 5 | – | ≤ 5
12 | Nc1ncnn2c1c(-c1ccc(NC(=O)c3cccn(-c4ccccc4)c3=O)cc1)cc2[C@H]1CC[C@H](O)CC1 [7 (trans isomer), N-{4-[4-Amino-7-(trans-4-hydroxycyclohexyl)pyrrolo[2,1-f][1,2,4]triazin-5-yl]phenyl}-2-oxo-1-phenyl-1,2-dihydropyridine-3-carboxamide] | ≤ 5 | – | –
13 | CN1CCC(c2cc(-c3ccc(NC(=O)c4cccn(-c5ccc(F)cc5)c4=O)cc3)c3c(N)ncnn23)CC1 [Example 21, N-{4-[4-Amino-7-(1-methylpiperidin-4-yl)pyrrolo[2,1-f][1,2,4]triazin-5-yl]phenyl}-1-(4-fluorophenyl)-2-oxo-1,2-dihydropyridine-3-carboxamide] | ≤ 5 | – | –
14 | Nc1ncnn2c(C3CCOCC3)cc(-c3ccc(NC(=O)c4cccn(-c5ccccc5)c4=O)cc3F)c12 [Example 15, N-{4-[4-Amino-7-(tetrahydro-2H-pyran-4-yl)pyrrolo[2,1-f][1,2,4]triazin-5-yl]-3-fluorophenyl}-2-oxo-1-phenyl-1,2-dihydropyridine-3-carboxamide] | ≤ 5 | – | ≤ 5

Now from value to compound:

Row | IC50 (c-Mer) [nM] | IC50 (Tyro3) [nM] | IC50 (phosphor-Axl) [nM] | SMILES
15 | ≤ 5 | > 100 | ≤ 5 | Cc1cc(C(=O)Nc2ccc(-c3cc(C4CCN(C(=O)C(C)C)CC4)n4ncnc(N)c34)cc2)c(=O)n(-c2cncc(F)c2)c1C [Example 121, N-(4-(4-Amino-7-(1-isobutyrylpiperidin-4-yl)pyrrolo[2,1-f][1,2,4]triazin-5-yl)phenyl)-5′-fluoro-5,6-dimethyl-2-oxo-2H-[1,3′-bipyridine]-3-carboxamide]
16 | ≤ 5 | > 100 | ≤ 5 | CC(C)C(=O)N1CCC(c2cc(-c3ccc(NC(=O)c4cc(C#C[C@H](C)O)cn(-c5ccccc5)c4=O)cc3)c3c(N)ncnn23)CC1 [Example 120, (S)—N-(4-(4-Amino-7-(1-isobutyrylpiperidin-4-yl)pyrrolo[2,1-f][1,2,4]triazin-5-yl)phenyl)-5-(3-hydroxybut-1-yn-1-yl)-2-oxo-1-phenyl-1,2-dihydropyridine-3-carboxamide]
17 | ≤ 5 | > 100 | ≤ 5 | Cc1cc(C(=O)Nc2ccc(-c3cc(C4CCN(C(=O)C(C)C)CC4)n4ncnc(N)c34)cc2)c(=O)n(-c2ccccc2)c1-c1cccnc1 [Example 106, N-(4-(4-Amino-7-(1-isobutyrylpiperidin-4-yl)pyrrolo[2,1-f][1,2,4]triazin-5-yl)phenyl)-3-methyl-6-oxo-1-phenyl-1,6-dihydro-[2,3′-bipyridine]-5-carboxamide]
18 | ≤ 5 | > 100 | ≤ 5 | Cc1c(-c2ncco2)cc(C(=O)Nc2ccc(-c3cc(C4CCN(C(=O)C(C)C)CC4)n4ncnc(N)c34)cc2)c(=O)n1-c1ccccn1 [Example 126, N-(4-(4-Amino-7-(1-isobutyrylpiperidin-4-yl)pyrrolo[2,1-f][1,2,4]triazin-5-yl)phenyl)-6-methyl-5-(oxazol-2-yl)-2-oxo-2H-[1,2′-bipyridine]-3-carboxamide]
19 | ≤ 5 | > 100 | ≤ 5 | Cc1c(Cl)cc(C(=O)Nc2ccc(-c3cc(C4CCN(C(=O)C(C)C)CC4)n4ncnc(N)c34)cc2)c(=O)n1-c1cccnc1 [Example 131, N-(4-(4-amino-7-(1-isobutyrylpiperidin-4-yl)pyrrolo[2,1-f][1,2,4]triazin-5-yl)phenyl)-5-chloro-6-methyl-2-oxo-2H-[1,3′-bipyridine]-3-carboxamide]
20 | ≤ 5 | > 100 | ≤ 5 | CCn1cc(C(=O)Nc2ccc(-c3cc(C4CCN(C(=O)N(C)C)CC4)n4ncnc(N)c34)cc2)c(=O)n(-c2ccc(F)cc2)c1=O [Example 67, N-(4-(4-Amino-7-(1-(dimethylcarbamoyl)piperidin-4-yl)pyrrolo[1,2-f][1,2,4]triazin-5-yl)phenyl)-1-ethyl-3-(4-fluorophenyl)-2,4-dioxo-1,2,3,4-tetrahydropyrimidine-5-carboxamide]
21 | ≤ 5 | > 100 | ≤ 5 | Cc1cc(C(=O)Nc2ccc(-c3cc(C4CCN(C(=O)C(C)C)CC4)n4ncnc(N)c34)cc2)c(=O)n(-c2cccnc2)c1C [Example 132, N-(4-(4-Amino-7-(1-isobutyrylpiperidin-4-yl)pyrrolo[2,1-f][1,2,4]triazin-5-yl)phenyl)-5,6-dimethyl-2-oxo-2H-[1,3′-bipyridine]-3-carboxamide]
22 | ≤ 5 | – | ≤ 5 | CC(C)C(=O)N1CCC(c2cc(-c3ccc(NC(=O)c4ccc(-c5ccccn5)n(-c5ccccc5)c4=O)cc3)c3c(N)ncnn23)CC1 [Example 104, N-(4-(4-Amino-7-(1-isobutyrylpiperidin-4-yl)pyrrolo[2,1-f][1,2,4]triazin-5-yl)phenyl)-6-oxo-1-phenyl-1,6-dihydro-[2,2′-bipyridine]-5-carboxamide]
